The NIST ThermoML archive (doi:10.1016/j.jct.2009.05.009)
± gives the expanded uncertainty stated by the source.

Assay: xn = mol fraction of the nth substance listed
Conditions: 101.3 kPa, Liquid, Vibrating tube method

`CCOS(=O)(=O)[O-].CCn1cc[n+](C)c1` [1-ethyl-3-methylimidazolium ethyl sulfate] + O showed a mass density (318.15 K, x2 = 0.4613) of 1212.4 ± 2.1 kg/m3, a mass density (318.15 K, x2 = 0.5002) of 1210.1 ± 2.2 kg/m3 and a mass density (318.15 K, x2 = 0.5584) of 1206 ± 2.2 kg/m3. The mass density (318.15 K, x2 = 0.6124) was 1201.1 ± 2.3 kg/m3, the mass density (318.15 K, x2 = 0.6698) was 1194.3 ± 2.4 kg/m3 and the mass density (318.15 K, x2 = 0.7125) was 1187.6 ± 2.7 kg/m3. The mass density (318.15 K, x2 = 0.7635) was 1177.2 ± 3.1 kg/m3, the mass density (318.15 K, x2 = 0.8006) was 1167 ± 3.9 kg/m3 and the mass density (318.15 K, x2 = 0.8497) was 1148.9 ± 5 kg/m3. For the same molecule, the mass density (318.15 K, x2 = 0.8963) was 1123 ± 11 kg/m3, the mass density (323.15 K, x2 = 0) was 1224.1 ± 2.3 kg/m3 and the mass density (323.15 K, x2 = 0.0514) was 1223 ± 2.3 kg/m3. The mass density (323.15 K, x2 = 0.13) was 1221.3 ± 2.2 kg/m3, the mass density (323.15 K, x2 = 0.1783) was 1220.1 ± 2.2 kg/m3 and the mass density (323.15 K, x2 = 0.2168) was 1219.1 ± 2.2 kg/m3. The mass density (323.15 K, x2 = 0.2642) was 1217.6 ± 2.2 kg/m3, the mass density (323.15 K, x2 = 0.3054) was 1216.3 ± 2.1 kg/m3 and the mass density (323.15 K, x2 = 0.3568) was 1214.4 ± 2.1 kg/m3. For the same molecule, the mass density (323.15 K, x2 = 0.4008) was 1212.4 ± 2.1 kg/m3, the mass density (323.15 K, x2 = 0.4613) was 1209.3 ± 2.1 kg/m3 and the mass density (323.15 K, x2 = 0.5002) was 1206.9 ± 2.2 kg/m3. It also gave a mass density (323.15 K, x2 = 0.5584) of 1202.8 ± 2.2 kg/m3, a mass density (323.15 K, x2 = 0.6124) of 1197.8 ± 2.3 kg/m3 and a mass density (323.15 K, x2 = 0.6698) of 1191 ± 2.4 kg/m3. It also gave a mass density (323.15 K, x2 = 0.7125) of 1184.3 ± 2.7 kg/m3, a mass density (323.15 K, x2 = 0.7635) of 1173.7 ± 3.1 kg/m3 and a mass density (323.15 K, x2 = 0.8006) of 1163.5 ± 3.9 kg/m3. For the same molecule, the mass density (323.15 K, x2 = 0.8497) was 1145.2 ± 5 kg/m3, the mass density (323.15 K, x2 = 0.8963) was 1119.6 ± 11 kg/m3 and the mass density (328.15 K, x2 = 0) was 1221.1 ± 2.3 kg/m3. It also gave a mass density (328.15 K, x2 = 0.0514) of 1220 ± 2.3 kg/m3, a mass density (328.15 K, x2 = 0.13) of 1218.2 ± 2.2 kg/m3 and a mass density (328.15 K, x2 = 0.1783) of 1216.9 ± 2.2 kg/m3. The mass density (328.15 K, x2 = 0.2168) was 1216 ± 2.2 kg/m3, the mass density (328.15 K, x2 = 0.2642) was 1214.6 ± 2.2 kg/m3 and the mass density (328.15 K, x2 = 0.3054) was 1213.2 ± 2.1 kg/m3. The mass density (328.15 K, x2 = 0.3568) was 1211.2 ± 2.1 kg/m3, the mass density (328.15 K, x2 = 0.4008) was 1209.3 ± 2.1 kg/m3 and the mass density (328.15 K, x2 = 0.4613) was 1206.1 ± 2.1 kg/m3. For the same molecule, the mass density (328.15 K, x2 = 0.5002) was 1203.8 ± 2.2 kg/m3, the mass density (328.15 K, x2 = 0.5584) was 1199.6 ± 2.2 kg/m3 and the mass density (328.15 K, x2 = 0.6124) was 1194.6 ± 2.3 kg/m3. For the same molecule, the mass density (328.15 K, x2 = 0.6698) was 1187.7 ± 2.4 kg/m3, the mass density (328.15 K, x2 = 0.7125) was 1181 ± 2.8 kg/m3 and the mass density (328.15 K, x2 = 0.7635) was 1170.2 ± 3.1 kg/m3. It also gave a mass density (328.15 K, x2 = 0.8006) of 1160 ± 3.9 kg/m3, a mass density (328.15 K, x2 = 0.8497) of 1141.6 ± 5 kg/m3 and a mass density (328.15 K, x2 = 0.8963) of 1116.4 ± 11 kg/m3. The mass density (333.15 K, x2 = 0) was 1218.1 ± 2.3 kg/m3, the mass density (333.15 K, x2 = 0.0514) was 1216.9 ± 2.3 kg/m3 and the mass density (333.15 K, x2 = 0.13) was 1215.2 ± 2.2 kg/m3. It also gave a mass density (333.15 K, x2 = 0.1783) of 1213.9 ± 2.2 kg/m3, a mass density (333.15 K, x2 = 0.2168) of 1212.9 ± 2.2 kg/m3 and a mass density (333.15 K, x2 = 0.2642) of 1211.5 ± 2.2 kg/m3. It also gave a mass density (333.15 K, x2 = 0.3054) of 1210.1 ± 2.1 kg/m3, a mass density (333.15 K, x2 = 0.3568) of 1208.2 ± 2.1 kg/m3 and a mass density (333.15 K, x2 = 0.4008) of 1206.2 ± 2.1 kg/m3. It also gave a mass density (333.15 K, x2 = 0.4613) of 1203.1 ± 2.1 kg/m3, a mass density (333.15 K, x2 = 0.5002) of 1200.7 ± 2.2 kg/m3 and a mass density (333.15 K, x2 = 0.5584) of 1196.4 ± 2.2 kg/m3. For the same molecule, the mass density (333.15 K, x2 = 0.6124) was 1191.4 ± 2.3 kg/m3, the mass density (333.15 K, x2 = 0.6698) was 1184.3 ± 2.4 kg/m3 and the mass density (333.15 K, x2 = 0.7125) was 1177.5 ± 2.8 kg/m3. The mass density (333.15 K, x2 = 0.7635) was 1166.8 ± 3.1 kg/m3, the mass density (333.15 K, x2 = 0.8006) was 1156.6 ± 3.9 kg/m3 and the mass density (333.15 K, x2 = 0.8497) was 1138.3 ± 5 kg/m3. For the same molecule, the mass density (333.15 K, x2 = 0.8963) was 1112.9 ± 11 kg/m3, the mass density (338.15 K, x2 = 0) was 1215.1 ± 2.3 kg/m3 and the mass density (338.15 K, x2 = 0.0514) was 1213.8 ± 2.3 kg/m3. The mass density (338.15 K, x2 = 0.13) was 1212.1 ± 2.2 kg/m3, the mass density (338.15 K, x2 = 0.1783) was 1210.9 ± 2.2 kg/m3 and the mass density (338.15 K, x2 = 0.2168) was 1209.9 ± 2.2 kg/m3. For the same molecule, the mass density (338.15 K, x2 = 0.2642) was 1208.4 ± 2.2 kg/m3, the mass density (338.15 K, x2 = 0.3054) was 1207 ± 2.1 kg/m3 and the mass density (338.15 K, x2 = 0.3568) was 1205.1 ± 2.1 kg/m3. For the same molecule, the mass density (338.15 K, x2 = 0.4008) was 1203.1 ± 2.1 kg/m3, the mass density (338.15 K, x2 = 0.4613) was 1200 ± 2.1 kg/m3 and the mass density (338.15 K, x2 = 0.5002) was 1197.6 ± 2.2 kg/m3. For the same molecule, the mass density (338.15 K, x2 = 0.5584) was 1193.2 ± 2.2 kg/m3, the mass density (338.15 K, x2 = 0.6124) was 1188.1 ± 2.3 kg/m3 and the mass density (338.15 K, x2 = 0.6698) was 1180.9 ± 2.5 kg/m3. It also gave a mass density (338.15 K, x2 = 0.7125) of 1173.9 ± 2.7 kg/m3, a mass density (338.15 K, x2 = 0.7635) of 1163.5 ± 3.1 kg/m3 and a mass density (338.15 K, x2 = 0.8006) of 1153.2 ± 3.9 kg/m3. It also gave a mass density (338.15 K, x2 = 0.8497) of 1134.9 ± 5 kg/m3, a mass density (338.15 K, x2 = 0.8963) of 1109.3 ± 11 kg/m3 and a mass density (343.15 K, x2 = 0) of 1212 ± 2.3 kg/m3. The mass density (343.15 K, x2 = 0.0514) was 1210.7 ± 2.3 kg/m3, the mass density (343.15 K, x2 = 0.13) was 1208.9 ± 2.2 kg/m3 and the mass density (343.15 K, x2 = 0.1783) was 1207.8 ± 2.2 kg/m3. It also gave a mass density (343.15 K, x2 = 0.2168) of 1206.7 ± 2.2 kg/m3, a mass density (343.15 K, x2 = 0.2642) of 1205.3 ± 2.1 kg/m3 and a mass density (343.15 K, x2 = 0.3054) of 1203.9 ± 2.1 kg/m3. The mass density (343.15 K, x2 = 0.3568) was 1201.9 ± 2.1 kg/m3, the mass density (343.15 K, x2 = 0.4008) was 1200 ± 2.1 kg/m3 and the mass density (343.15 K, x2 = 0.4613) was 1196.8 ± 2.1 kg/m3. For the same molecule, the mass density (343.15 K, x2 = 0.5002) was 1194.3 ± 2.2 kg/m3, the mass density (343.15 K, x2 = 0.5584) was 1189.9 ± 2.2 kg/m3 and the mass density (343.15 K, x2 = 0.6124) was 1184.7 ± 2.3 kg/m3. For the same molecule, the mass density (343.15 K, x2 = 0.6698) was 1177.4 ± 2.5 kg/m3, the mass density (343.15 K, x2 = 0.7125) was 1170.4 ± 2.7 kg/m3 and the mass density (343.15 K, x2 = 0.7635) was 1159.9 ± 3.1 kg/m3. The mass density (343.15 K, x2 = 0.8006) was 1149.5 ± 3.9 kg/m3, the mass density (343.15 K, x2 = 0.8497) was 1131.3 ± 5 kg/m3 and the mass density (343.15 K, x2 = 0.8963) was 1106 ± 11 kg/m3.
